The numbers were not newly measured in publication PMC3783256 (Marine Drugs, 2004), which cites them from elsewhere.

In the data set the target is RyR1-FKBP12 complex (Oryctolagus cuniculus, UniProt P11716). As to conditions: read-out: EC50, weak agonists of the receptor; ref 8a.
Chain of RyR1-FKBP12 complex (P11716 whole entry): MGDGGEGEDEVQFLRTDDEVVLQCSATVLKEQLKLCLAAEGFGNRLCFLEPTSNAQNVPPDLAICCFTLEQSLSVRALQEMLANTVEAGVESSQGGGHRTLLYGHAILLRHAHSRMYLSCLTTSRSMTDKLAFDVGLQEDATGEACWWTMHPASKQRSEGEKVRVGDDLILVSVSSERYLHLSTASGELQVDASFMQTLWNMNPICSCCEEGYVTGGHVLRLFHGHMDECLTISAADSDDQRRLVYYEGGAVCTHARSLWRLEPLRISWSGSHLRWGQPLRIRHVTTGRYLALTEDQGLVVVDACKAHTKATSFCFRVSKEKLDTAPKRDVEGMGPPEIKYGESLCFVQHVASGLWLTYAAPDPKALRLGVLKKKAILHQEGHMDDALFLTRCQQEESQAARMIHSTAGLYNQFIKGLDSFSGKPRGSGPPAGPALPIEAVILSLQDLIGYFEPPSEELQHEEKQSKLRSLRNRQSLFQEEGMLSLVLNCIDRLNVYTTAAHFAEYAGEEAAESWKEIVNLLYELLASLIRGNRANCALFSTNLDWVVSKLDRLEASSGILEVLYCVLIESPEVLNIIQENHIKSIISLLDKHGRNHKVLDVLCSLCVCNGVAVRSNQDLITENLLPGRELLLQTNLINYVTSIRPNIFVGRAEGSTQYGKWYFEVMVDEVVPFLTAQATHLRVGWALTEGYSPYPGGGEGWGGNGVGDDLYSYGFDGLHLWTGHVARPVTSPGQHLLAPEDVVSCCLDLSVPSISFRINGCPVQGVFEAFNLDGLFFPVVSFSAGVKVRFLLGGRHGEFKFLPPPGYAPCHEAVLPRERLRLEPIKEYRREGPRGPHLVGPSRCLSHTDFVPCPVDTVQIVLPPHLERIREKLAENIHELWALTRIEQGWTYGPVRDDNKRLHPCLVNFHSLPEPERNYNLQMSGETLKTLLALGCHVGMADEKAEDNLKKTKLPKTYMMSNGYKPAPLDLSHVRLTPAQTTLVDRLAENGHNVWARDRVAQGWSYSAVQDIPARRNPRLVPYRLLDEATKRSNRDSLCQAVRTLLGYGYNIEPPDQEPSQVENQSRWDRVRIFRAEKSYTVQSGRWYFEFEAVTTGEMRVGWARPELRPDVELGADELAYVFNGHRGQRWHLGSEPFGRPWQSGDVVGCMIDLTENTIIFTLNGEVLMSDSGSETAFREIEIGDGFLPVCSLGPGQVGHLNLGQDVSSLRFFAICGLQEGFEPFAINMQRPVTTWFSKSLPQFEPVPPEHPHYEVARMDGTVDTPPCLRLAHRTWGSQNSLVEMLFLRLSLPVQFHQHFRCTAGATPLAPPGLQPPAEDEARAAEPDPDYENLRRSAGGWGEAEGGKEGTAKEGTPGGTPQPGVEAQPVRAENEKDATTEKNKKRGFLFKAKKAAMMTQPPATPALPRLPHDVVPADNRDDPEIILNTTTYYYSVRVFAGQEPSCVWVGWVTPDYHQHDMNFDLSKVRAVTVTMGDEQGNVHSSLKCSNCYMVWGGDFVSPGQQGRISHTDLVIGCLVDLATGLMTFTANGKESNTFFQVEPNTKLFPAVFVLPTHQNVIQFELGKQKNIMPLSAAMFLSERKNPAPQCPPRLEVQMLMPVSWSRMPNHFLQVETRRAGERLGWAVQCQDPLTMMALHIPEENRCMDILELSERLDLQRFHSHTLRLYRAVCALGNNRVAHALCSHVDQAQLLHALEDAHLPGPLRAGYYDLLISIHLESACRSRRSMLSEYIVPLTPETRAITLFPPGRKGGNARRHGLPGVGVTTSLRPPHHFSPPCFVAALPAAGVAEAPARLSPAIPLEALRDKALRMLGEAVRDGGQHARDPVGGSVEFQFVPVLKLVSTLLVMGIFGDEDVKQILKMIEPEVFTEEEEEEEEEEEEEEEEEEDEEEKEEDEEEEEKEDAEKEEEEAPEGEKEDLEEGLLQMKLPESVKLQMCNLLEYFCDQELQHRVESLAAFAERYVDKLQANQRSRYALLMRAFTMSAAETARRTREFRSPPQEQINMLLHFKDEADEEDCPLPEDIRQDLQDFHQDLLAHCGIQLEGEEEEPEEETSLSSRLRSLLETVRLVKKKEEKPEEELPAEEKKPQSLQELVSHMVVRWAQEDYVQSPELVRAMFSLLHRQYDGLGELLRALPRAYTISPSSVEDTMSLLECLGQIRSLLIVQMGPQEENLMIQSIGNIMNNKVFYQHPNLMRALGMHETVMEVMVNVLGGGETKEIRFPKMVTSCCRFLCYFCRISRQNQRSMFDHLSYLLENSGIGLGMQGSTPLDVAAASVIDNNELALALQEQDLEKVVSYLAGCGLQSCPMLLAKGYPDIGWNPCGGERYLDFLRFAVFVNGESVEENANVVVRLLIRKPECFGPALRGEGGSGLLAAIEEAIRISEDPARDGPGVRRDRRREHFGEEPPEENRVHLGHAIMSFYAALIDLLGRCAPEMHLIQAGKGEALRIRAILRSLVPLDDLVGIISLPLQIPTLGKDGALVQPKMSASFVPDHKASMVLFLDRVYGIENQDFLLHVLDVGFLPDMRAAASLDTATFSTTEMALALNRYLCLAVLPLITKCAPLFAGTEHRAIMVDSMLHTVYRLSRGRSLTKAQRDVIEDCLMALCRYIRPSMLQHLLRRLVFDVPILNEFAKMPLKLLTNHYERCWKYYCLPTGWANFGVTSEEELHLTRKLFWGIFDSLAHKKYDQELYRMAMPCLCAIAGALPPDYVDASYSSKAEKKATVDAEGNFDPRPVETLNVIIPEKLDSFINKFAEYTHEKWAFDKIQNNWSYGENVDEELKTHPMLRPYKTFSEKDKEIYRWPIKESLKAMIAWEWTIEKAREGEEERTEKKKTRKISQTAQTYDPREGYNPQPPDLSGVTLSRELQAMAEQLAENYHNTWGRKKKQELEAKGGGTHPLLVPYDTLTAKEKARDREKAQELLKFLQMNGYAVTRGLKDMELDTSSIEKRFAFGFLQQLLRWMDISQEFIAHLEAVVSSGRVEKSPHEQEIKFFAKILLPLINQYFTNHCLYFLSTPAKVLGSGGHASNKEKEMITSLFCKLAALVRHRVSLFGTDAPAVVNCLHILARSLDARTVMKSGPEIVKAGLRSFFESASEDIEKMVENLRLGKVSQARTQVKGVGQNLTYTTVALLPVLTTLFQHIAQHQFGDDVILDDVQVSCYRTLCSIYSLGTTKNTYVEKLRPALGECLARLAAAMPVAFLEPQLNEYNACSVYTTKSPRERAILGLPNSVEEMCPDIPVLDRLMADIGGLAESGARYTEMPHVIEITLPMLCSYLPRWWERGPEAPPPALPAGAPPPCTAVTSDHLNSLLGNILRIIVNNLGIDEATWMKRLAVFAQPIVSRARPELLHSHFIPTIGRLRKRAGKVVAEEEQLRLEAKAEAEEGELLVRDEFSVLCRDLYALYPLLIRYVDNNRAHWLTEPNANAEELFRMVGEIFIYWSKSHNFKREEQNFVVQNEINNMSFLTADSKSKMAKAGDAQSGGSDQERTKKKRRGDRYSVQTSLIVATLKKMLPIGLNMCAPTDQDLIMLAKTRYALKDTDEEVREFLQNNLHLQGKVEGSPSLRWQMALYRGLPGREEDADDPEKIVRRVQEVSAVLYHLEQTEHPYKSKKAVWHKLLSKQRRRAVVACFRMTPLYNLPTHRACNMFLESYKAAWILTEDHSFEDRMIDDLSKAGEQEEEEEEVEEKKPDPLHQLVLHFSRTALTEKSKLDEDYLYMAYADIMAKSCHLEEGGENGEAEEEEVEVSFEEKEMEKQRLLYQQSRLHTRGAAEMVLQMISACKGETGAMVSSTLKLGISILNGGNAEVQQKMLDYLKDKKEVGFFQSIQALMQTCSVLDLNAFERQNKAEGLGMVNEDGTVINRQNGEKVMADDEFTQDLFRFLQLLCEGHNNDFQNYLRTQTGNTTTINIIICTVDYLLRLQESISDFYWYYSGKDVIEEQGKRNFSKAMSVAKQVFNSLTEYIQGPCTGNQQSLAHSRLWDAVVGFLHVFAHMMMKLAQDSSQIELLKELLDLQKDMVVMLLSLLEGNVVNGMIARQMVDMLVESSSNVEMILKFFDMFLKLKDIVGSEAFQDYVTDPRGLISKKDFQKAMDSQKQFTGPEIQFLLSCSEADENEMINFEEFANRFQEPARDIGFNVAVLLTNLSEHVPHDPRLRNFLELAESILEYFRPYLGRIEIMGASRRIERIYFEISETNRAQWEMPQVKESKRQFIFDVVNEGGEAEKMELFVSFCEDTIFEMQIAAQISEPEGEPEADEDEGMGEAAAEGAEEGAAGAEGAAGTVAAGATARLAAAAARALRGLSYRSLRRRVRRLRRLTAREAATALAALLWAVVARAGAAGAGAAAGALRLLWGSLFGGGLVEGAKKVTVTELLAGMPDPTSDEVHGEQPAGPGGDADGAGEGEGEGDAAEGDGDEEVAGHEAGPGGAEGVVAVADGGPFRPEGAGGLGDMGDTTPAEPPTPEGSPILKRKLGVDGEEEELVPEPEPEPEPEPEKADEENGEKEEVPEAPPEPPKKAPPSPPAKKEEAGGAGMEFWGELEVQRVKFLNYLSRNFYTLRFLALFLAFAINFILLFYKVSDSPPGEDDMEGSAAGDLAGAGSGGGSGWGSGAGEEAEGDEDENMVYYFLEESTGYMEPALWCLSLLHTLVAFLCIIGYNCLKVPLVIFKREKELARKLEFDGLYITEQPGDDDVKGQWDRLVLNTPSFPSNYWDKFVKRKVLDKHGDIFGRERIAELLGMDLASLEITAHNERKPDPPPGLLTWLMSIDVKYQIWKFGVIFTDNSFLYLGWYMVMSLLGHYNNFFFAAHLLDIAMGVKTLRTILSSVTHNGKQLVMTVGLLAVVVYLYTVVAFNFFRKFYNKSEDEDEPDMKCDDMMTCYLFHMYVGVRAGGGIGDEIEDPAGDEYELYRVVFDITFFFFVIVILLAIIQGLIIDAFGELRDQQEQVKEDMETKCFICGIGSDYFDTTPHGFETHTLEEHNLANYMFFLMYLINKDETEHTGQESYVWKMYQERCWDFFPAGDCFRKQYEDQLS
Chain of RyR1-FKBP12 complex (P62943 2-108 partner limits assumed): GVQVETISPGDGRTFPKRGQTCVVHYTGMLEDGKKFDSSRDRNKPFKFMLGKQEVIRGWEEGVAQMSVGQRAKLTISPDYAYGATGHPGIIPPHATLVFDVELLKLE

As usually defined, the EC50 is the concentration giving half of the maximal effect. Turning to 15,34-O-di-sulfatobastadin-7, the concentration for a half-maximal effect (EC50) was 13.6 µM.
